From patent publication US8524290B2, “Non-occluding nasal moisturizer and methods of use” (priority 2010, dated 2013)

Test system: nasal epithelium
Assay: Transepidermal water loss of the nasal epithelium (TEWAMETER 300 evaporation meter)
Type: in vivo
Details: single nostril, after application, compared with basal state
Method: A single nostril is administered the test composition of Example 1 or a comparator solution, and transepidermal water loss is measured using an evaporation meter ([…] 300; Courage+Khazaka electronic GmbH, Germany) using the original probe. Subjects are positioned in a seated posture and hold their breath during measurements. Basal measurements are performed prior to application of a test composition.

O [water]
transepidermal water loss: Little change
